According to BindingDB's records for doi:10.1021/jm7012858 (Wyeth Research, 2008):

How the values were obtained:
Experiment in all cases: PI3K Inhibition Assay
[1] = target: Phosphatidylinositol 3-kinase regulatory subunit beta/4,5-bisphosphate 3-kinase catalytic subunit beta isoform (Homo sapiens, UniProt P42338); conditions: pH 7.5; 22 °C
Procedure: (§1) Inhibition of PI3K enzyme activity is measured in a microtiter plate-based fluorescence polarization (FP) assay.

[2] = target: Phosphatidylinositol 3-kinase regulatory subunit alpha/4,5-bisphosphate 3-kinase catalytic subunit alpha isoform (Homo sapiens, UniProt P42336)
Chain of Phosphatidylinositol 3-kinase regulatory subunit alpha/4,5-bisphosphate 3-kinase catalytic subunit alpha isoform (P27986 whole entry, canonical isoform): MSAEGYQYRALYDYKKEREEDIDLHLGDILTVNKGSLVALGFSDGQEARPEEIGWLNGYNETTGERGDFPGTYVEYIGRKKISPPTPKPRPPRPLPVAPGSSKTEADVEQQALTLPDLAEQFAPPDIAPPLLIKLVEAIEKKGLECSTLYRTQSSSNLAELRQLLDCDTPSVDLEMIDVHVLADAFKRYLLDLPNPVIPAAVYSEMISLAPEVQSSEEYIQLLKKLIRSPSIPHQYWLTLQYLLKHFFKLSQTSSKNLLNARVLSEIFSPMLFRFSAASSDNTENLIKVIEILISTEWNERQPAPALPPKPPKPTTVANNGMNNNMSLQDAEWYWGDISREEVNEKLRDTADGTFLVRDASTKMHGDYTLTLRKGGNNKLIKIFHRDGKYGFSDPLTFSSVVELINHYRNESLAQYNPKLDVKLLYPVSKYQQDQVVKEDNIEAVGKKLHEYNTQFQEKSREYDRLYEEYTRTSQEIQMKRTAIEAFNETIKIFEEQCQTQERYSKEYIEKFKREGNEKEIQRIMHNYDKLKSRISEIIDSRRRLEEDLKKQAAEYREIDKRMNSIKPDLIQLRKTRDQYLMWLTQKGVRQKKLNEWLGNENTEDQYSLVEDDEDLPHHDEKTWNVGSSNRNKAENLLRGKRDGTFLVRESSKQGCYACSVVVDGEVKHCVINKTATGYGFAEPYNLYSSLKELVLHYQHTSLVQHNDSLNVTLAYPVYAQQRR
Chain of Phosphatidylinositol 3-kinase regulatory subunit alpha/4,5-bisphosphate 3-kinase catalytic subunit alpha isoform (P42336 whole entry, canonical isoform): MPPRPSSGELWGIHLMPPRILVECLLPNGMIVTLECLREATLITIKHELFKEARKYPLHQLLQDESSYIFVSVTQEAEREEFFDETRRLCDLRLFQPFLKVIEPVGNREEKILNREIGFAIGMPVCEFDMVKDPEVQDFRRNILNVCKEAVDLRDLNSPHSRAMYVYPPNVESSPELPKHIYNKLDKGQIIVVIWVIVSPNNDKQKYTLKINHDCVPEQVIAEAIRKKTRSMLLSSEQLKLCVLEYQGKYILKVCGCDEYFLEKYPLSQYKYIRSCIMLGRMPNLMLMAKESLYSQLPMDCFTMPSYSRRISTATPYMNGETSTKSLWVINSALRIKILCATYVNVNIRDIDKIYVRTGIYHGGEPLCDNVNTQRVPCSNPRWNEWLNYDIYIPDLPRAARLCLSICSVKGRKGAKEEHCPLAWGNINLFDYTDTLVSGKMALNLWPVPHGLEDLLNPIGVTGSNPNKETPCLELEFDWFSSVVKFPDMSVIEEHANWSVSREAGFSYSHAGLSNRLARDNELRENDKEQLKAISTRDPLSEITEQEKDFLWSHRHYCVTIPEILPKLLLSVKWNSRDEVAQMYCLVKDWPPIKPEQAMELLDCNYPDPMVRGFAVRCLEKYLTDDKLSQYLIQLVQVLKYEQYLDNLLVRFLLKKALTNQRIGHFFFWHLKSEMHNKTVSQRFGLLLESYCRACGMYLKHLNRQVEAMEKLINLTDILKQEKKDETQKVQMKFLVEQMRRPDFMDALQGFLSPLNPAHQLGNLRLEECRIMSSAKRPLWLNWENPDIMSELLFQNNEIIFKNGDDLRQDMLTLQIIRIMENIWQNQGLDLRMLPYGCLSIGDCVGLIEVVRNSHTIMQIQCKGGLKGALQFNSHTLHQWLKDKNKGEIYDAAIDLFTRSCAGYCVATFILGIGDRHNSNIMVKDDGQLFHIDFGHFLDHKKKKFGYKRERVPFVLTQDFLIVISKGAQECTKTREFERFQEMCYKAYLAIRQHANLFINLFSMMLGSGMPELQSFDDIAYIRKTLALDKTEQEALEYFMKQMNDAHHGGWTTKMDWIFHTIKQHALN
Procedure: as §1

[3] = target: Phosphatidylinositol 4,5-bisphosphate 3-kinase catalytic subunit gamma isoform/Phosphoinositide 3-kinase regulatory subunit 5 (Homo sapiens, UniProt P48736); conditions: pH 7.5; 22 °C
Procedure: as §1

[4] = target: Phosphatidylinositol 3-kinase regulatory subunit beta/4,5-bisphosphate 3-kinase catalytic subunit delta isoform (Homo sapiens, UniProt O00329+O00459); conditions: pH 7.5; 22 °C
Chain of Phosphatidylinositol 3-kinase regulatory subunit beta/4,5-bisphosphate 3-kinase catalytic subunit delta isoform (O00459 whole entry, canonical isoform): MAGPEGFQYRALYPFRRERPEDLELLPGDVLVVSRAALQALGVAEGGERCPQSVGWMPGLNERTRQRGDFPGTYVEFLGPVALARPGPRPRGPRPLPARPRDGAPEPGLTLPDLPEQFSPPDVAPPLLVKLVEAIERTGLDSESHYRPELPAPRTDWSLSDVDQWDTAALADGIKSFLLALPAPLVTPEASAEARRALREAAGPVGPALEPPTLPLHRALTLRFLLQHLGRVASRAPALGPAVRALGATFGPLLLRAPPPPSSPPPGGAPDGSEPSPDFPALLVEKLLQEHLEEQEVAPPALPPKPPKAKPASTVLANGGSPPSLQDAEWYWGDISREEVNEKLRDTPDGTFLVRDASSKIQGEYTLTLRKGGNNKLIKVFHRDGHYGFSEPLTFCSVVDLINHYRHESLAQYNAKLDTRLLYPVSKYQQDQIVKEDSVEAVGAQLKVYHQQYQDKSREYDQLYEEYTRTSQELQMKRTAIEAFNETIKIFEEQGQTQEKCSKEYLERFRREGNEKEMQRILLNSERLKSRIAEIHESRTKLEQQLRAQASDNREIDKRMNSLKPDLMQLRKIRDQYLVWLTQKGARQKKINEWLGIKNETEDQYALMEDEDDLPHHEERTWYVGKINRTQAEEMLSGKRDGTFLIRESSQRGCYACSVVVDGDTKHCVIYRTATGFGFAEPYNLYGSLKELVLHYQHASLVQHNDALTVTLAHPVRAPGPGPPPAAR
Chain of Phosphatidylinositol 3-kinase regulatory subunit beta/4,5-bisphosphate 3-kinase catalytic subunit delta isoform (O00329 whole entry, canonical isoform): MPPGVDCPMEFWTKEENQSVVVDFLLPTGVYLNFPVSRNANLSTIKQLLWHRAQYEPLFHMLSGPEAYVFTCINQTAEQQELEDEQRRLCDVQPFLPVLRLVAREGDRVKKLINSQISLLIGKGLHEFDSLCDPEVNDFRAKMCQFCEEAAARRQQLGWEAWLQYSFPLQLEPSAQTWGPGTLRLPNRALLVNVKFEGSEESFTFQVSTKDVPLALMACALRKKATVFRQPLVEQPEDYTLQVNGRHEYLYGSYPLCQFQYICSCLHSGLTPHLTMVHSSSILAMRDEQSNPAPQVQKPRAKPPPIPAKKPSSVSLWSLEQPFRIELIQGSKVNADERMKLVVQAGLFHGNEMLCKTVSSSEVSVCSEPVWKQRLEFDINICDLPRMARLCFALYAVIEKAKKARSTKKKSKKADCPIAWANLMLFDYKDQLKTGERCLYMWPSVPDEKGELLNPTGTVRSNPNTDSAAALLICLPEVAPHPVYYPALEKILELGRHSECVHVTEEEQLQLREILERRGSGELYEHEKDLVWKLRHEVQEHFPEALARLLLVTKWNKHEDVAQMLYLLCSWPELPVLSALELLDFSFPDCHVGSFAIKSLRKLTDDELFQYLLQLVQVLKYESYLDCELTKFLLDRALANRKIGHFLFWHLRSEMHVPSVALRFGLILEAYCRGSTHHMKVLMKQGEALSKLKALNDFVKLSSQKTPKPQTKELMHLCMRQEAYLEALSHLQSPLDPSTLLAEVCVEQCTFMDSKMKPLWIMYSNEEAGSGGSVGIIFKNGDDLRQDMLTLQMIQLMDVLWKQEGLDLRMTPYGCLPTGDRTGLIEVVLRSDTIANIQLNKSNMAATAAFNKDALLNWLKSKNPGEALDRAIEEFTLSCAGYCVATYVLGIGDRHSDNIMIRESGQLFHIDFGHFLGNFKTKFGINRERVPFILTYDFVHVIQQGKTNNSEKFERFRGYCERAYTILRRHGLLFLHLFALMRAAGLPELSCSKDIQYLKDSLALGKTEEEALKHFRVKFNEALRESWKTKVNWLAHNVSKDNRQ
Procedure: as §1

Chain of Phosphatidylinositol 3-kinase regulatory subunit beta/4,5-bisphosphate 3-kinase catalytic subunit beta isoform (P42338 whole entry, canonical isoform): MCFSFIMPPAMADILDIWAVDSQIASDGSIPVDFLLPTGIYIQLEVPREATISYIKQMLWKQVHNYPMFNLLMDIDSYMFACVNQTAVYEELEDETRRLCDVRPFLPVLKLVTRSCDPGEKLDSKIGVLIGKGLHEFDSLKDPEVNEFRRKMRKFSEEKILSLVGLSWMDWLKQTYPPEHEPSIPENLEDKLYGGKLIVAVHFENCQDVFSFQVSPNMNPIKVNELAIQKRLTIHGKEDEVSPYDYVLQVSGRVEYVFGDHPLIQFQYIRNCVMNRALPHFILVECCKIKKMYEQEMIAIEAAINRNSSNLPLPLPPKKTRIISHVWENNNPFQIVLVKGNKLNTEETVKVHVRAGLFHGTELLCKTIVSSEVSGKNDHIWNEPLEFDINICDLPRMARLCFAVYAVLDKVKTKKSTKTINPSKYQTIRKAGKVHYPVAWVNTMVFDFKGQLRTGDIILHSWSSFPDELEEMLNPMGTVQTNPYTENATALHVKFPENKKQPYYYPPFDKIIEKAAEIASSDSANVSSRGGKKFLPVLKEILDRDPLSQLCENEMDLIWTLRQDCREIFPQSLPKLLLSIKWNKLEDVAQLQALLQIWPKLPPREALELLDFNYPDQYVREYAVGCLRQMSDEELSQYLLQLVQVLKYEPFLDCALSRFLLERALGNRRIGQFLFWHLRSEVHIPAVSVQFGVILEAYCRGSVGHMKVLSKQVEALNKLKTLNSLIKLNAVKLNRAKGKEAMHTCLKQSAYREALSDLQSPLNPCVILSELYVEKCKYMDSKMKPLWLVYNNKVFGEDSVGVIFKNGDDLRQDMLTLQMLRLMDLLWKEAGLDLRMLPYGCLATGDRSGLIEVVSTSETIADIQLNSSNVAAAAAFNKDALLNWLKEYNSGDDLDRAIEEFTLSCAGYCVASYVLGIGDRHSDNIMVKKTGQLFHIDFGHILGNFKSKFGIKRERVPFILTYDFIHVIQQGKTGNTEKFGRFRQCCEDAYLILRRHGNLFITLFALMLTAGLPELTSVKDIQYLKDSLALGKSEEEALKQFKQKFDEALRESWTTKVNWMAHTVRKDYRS
Chain of Phosphatidylinositol 3-kinase regulatory subunit beta/4,5-bisphosphate 3-kinase catalytic subunit beta isoform (O00459 whole entry, further chain, canonical isoform): as the sequence (O00459 whole entry, canonical isoform) above

IC50 [1] [µM] | IC50 ([2]; pH 7.5, 22 °C) [µM] | IC50 [3] [µM] | IC50 [4] [µM] | IC50 [2] [µM] | Structure (SMILES)
0.013 | 0.0064 | 0.008 | 0.011 | – | COC[C@H]1OC(=O)C(=CN(C)CCCN(C)C)C2C(=O)C(=O)C3=C([C@H](OC(C)=O)C[C@@]4(C)C3CC[C@@H]4O)[C@]21C (stereo partly drawn) [(2R,3S,6Z,14S,15S,17R)-6-({[3-(dimethylamino)propyl](methyl)amino}methylidene)-8,14-dihydroxy-3-(methoxymethyl)-2,15-dimethyl-5,9-dioxo-4-oxatetracyclo[8.7.0.0^{2,7}.0^{11,15}]heptadeca-1(10),7-dien-17-yl acetate]
– | – | – | – | 0.024 | CCN(C=C1C(=O)O[C@H](COC)[C@]2(C)C3=C(C(=O)C(=O)C12)C1CC[C@H](O)[C@@]1(C)C[C@H]3OC(C)=O)CCN(CC)CC (stereo partly drawn) [(2R,3S,6E,14S,15S,17R)-6-({[2-(diethylamino)ethyl](ethyl)amino}methylidene)-8,14-dihydroxy-3-(methoxymethyl)-2,15-dimethyl-5,9-dioxo-4-oxatetracyclo[8.7.0.0^{2,7}.0^{11,15}]heptadeca-1(10),7-dien-17-yl acetate]
